Tests used:
Type in all cases: cell-based
CCRF-CEM = assay: NCI 60 panel: CCRF-CEM (Leukemia)
Description: (§5) TGI means the drug concentration resulting in total growth inhibition or “cytostasis.” LC50 is the concentration of drug resulting in a 50% reduction in the measured cytosolic ATP at the end of the drug treatment as compared to that at the beginning, indicating a net loss of cells following treatment (cytotoxicity).

HL-60 = assay: NCI 60 panel: HL-60 (Leukemia)
Description: as §5

HOP-92 = assay: NCI 60 panel: HOP-92 (Non-Small Cell Lung Cancer)
Description: as §5

NCI-H460 = assay: NCI 60 panel: NCI-H460 (Non-Small Cell Lung Cancer)
Description: as §5

COLO 205 = assay: NCI 60 panel: COLO 205 (Colon Cancer)
Description: as §5

SNB-75 = assay: NCI 60 panel: SNB-75 (CNS Cancer)
Description: as §5

U251 = assay: NCI 60 panel: U251 (CNS Cancer)
Description: as §5

OVCAR-4 = assay: NCI 60 panel: OVCAR-4 (Ovarian Cancer)
Description: as §5

OVCAR-5 = assay: NCI 60 panel: OVCAR-5 (Ovarian Cancer)
Description: as §5

A498 = assay: NCI 60 panel: A498 (Renal Cancer)
Description: as §5

ACHN = assay: NCI 60 panel: ACHN (Renal Cancer)
Description: as §5

CAKI-1 [1] = assay: NCI 60 panel: CAKI-1 (Renal Cancer)
Description: as §5

DU-145 = assay: NCI 60 panel: DU-145 (Prostate Cancer)
Description: as §5

HS 578T = assay: NCI 60 panel: HS 578T (Breast Cancer)
Description: as §5

BT-549 = assay: NCI 60 panel: BT-549 (Breast Cancer)
Description: as §5

T-47D = assay: NCI 60 panel: T-47D (Breast Cancer)
Description: as §5

T98G = assay: Complementary DBM in vitro profiling: T98G (CNS Cancer)
Method: (§1) The compounds described herein are effective for inhibiting cellular proliferation in hyperproliferative cell types. To study the effects of these compounds, an assay was developed to differentiate the effects of the compounds on proliferating versus confluent cells. The assay design generates a proliferating density 24 hours after seeding and provides a 3-day active cell growth/doubling window in which to gauge the anti-proliferative effect of the compounds described herein. […] In this 3-day growth window, cell number increases with daily doublings across the 72-hour period (see FIG. 1).
(§2) In each assay design, compounds were added at the 24-hour timepoint after cell seeding. The effect of the compounds, relative to vehicle control and to VelCade (a proteasome inhibitor approved in the U.S. for treating relapsed multiple myeloma and mantle cell lymphoma) as a positive control, was assessed across the 3-day growth window for proliferating cells and on an already near confluent culture of cells for the same time period. Normal cells were handled in the same manner, with some adjustment of seeding density needed in select cases. […]
(§3) Cell number at the end of the assay was determined using the CELLTITER-GLO Luminescent Cell Viability Assay (Promega; Madison, Wis.). The CELLTITER-GLO Luminescent Cell Viability Assay is a homogeneous method of determining the number of viable cells in culture based on quantitation of the ATP present, an indicator of metabolically active cells. IC50 values were calculated. […]
(§4) For a typical screening experiment to identify the compounds, cells were seeded into 96- or 384-well microtiter plates at plating densities pre-determined for each cell line to ensure drug exposure occurs during the proliferative phase well before confluency is reached. […] Values were calculated for each of these three parameters if the level of activity was reached; however, if the effect was not reached or was exceeded, the value for that parameter was expressed as greater or less than the maximum or minimum concentration tested.

U118MG = assay: Complementary DBM in vitro profiling: U118MG (CNS Cancer)
Method: as §1, §2, §3, §4

U266 = assay: Complementary DBM in vitro profiling: U266 (Hematologic Cancer)
Method: as §1, §2, §3, §4

CAKI-1 [2] = assay: Complementary DBM in vitro profiling: CAKI-1 (Renal Cancer)
Method: as §1, §2, §3, §4

[3] = test system: WT cells (cloned non-cystic kidney tissue cells); assay: Concentration-response in primary cultures cloned from non-cystic kidney tissue; conditions: 72 hour treatment
Method: The concentration-response effects of Compound DBM 228, Compound DBM 308, Compound DBM 101, and Compound DBM 328 were determined in primary cultures derived as ‘clones’ from cystic versus non-cystic kidney tissue. CRC graphs, IC50 values, and the percent maximum inhibition versus lowest doses without effect were calculated with GraphPad Prism software. […] There was also a marked separation in effect between hyperproliferative PKD cells (FIG. 5A and Table 3) and WT cells (FIG. 5B and Table 4).

[4] = test system: primary human ADPKD cystic epithelial cell lines, ARCaP-M, CAKI-1; assay: Viability in cystic ADPKD cells, prostate and kidney cancer lines
Method: as §1
In each assay design, compounds were added at the 24-hour timepoint after cell seeding. The effect of the compounds, relative to vehicle control and to VelCade (a proteasome inhibitor approved in the U.S. for treating relapsed multiple myeloma and mantle cell lymphoma) as a positive control, was assessed across the 3-day growth window for proliferating cells and on an already near confluent culture of cells for the same time period. Normal cells were handled in the same manner, with some adjustment of seeding density needed in select cases. This assay design holds for the data series presented below.
Cell number at the end of the assay was determined using the CELLTITER-GLO Luminescent Cell Viability Assay (Promega; Madison, Wis.). The CELLTITER-GLO Luminescent Cell Viability Assay is a homogeneous method of determining the number of viable cells in culture based on quantitation of the ATP present, an indicator of metabolically active cells. IC50 values were calculated. Cell number (number of cells per well) was converted to the % of DMSO matched controls. Each measurement was performed in triplicate. Typical dosage ranges tested were from 250 picomolar to 50 micromolar.
The compounds as described herein were tested on primary human ADPKD cystic epithelial cell lines as well as two common cancer cell lines from the prostate (ARCaP-M) and kidney (CAKI-1).

[5] = read-out: LC50 (the source's name)

With COc1ccccc1Nc1nc(-c2cc3cccc(N)c3oc2=O)cs1 [Compound DBM 228] the GI50 (CCRF-CEM) was 177 nM, the LC50 (50% lethal concentration) (CCRF-CEM) was > 100000 nM and the TGI (CCRF-CEM) was 15400 nM. For the same compound, the GI50 (HL-60) was 34 nM, the TGI (HL-60) was 137 nM and the CC50 (HL-60; [5]) was 825 nM. The GI50 (HOP-92) was 1450 nM, the TGI (HOP-92) was 24700 nM and the CC50 (HOP-92; [5]) was > 100000 nM. For the same compound, the GI50 (NCI-H460) was 91.2 nM, the TGI (NCI-H460) was 14200 nM and the CC50 (NCI-H460; [5]) was > 100000 nM. The GI50 (COLO 205) was 337 nM, the TGI (COLO 205) was 1800 nM and the CC50 (COLO 205; [5]) was > 100000 nM. The GI50 (SNB-75) was 48.1 nM, the CC50 (SNB-75; [5]) was > 100000 nM and the GI50 (U251) was 46.8 nM. It also gave a TGI (U251) of 10600 nM, a CC50 (U251; [5]) of 35700 nM and a GI50 (OVCAR-4) of 1350 nM. For the same compound, the TGI (OVCAR-4) was 25000 nM, the CC50 (OVCAR-4; [5]) was > 100000 nM and the GI50 (OVCAR-5) was 592 nM. For the same compound, the TGI (OVCAR-5) was 15700 nM, the CC50 (OVCAR-5; [5]) was 51900 nM and the GI50 (A498) was 35.4 nM. The TGI (A498) was 4420 nM, the CC50 (A498; [5]) was > 100000 nM and the GI50 (ACHN) was 1490 nM. The TGI (ACHN) was 15900 nM, the CC50 (ACHN; [5]) was 42700 nM and the GI50 (CAKI-1 [1]) was 115 nM. For the same compound, the TGI (CAKI-1 [1]) was 27900 nM, the CC50 (CAKI-1 [1]; [5]) was > 100000 nM and the GI50 (DU-145) was 356 nM. The TGI (DU-145) was 5310 nM, the CC50 (DU-145; [5]) was 41000 nM and the GI50 (HS 578T) was 13700 nM. For the same compound, the TGI (HS 578T) was >100000 nM, the CC50 (HS 578T; [5]) was > 100000 nM and the GI50 (BT-549) was 239 nM. The TGI (BT-549) was 12300 nM, the CC50 (BT-549; [5]) was > 100000 nM and the TGI (T-47D) was 55900 nM. The CC50 (T-47D; [5]) was > 100000 nM, the GI50 (T98G) was 467 nM and the TGI (T98G) was 3970 nM. It also gave a CC50 (T98G; [5]) of 17600 nM, a GI50 (U118MG) of 2710 nM and a TGI (U118MG) of 7850 nM. The CC50 (U118MG; [5]) was > 30000 nM, the GI50 (U266) was 79.6 nM and the TGI (U266) was 116 nM. For the same compound, the CC50 (U266; [5]) was 161 nM, the GI50 (CAKI-1 [2]) was 142 nM and the TGI (CAKI-1 [2]) was 1920 nM. For the same compound, the CC50 (CAKI-1 [2]; [5]) was 5210 nM, the IC50 [3] was > 100000 nM and the Max inhibition [3] was 49%. For the same compound, the “effect on cells, in words” value ([4]; at and around the 1 micromolar dose) was “cytostatic plateau”, the “effect on cells, in words” value ([4]; higher mid-micromolar concentrations) was “cytotoxic effect” and the “effect on cells, in words” value ([4]; nanomolar ranges, 12-point CRC) was “growth arrested but not killed”.

From US10369145B2, “Coumarin derivatives and methods of use in treating hyperproliferative diseases” (DISCOVERYBIOMED, INC., priority 2013, dated 2019)
